Data from patent US5455044A, “Method for treating neurological disorders” (priority 1993, dated 1995).

Test: Effect of concurrent oral dexamethasone administration on DTC 101 toxicity

For C[C@@H]1C[C@H]2[C@@H]3CCC4=CC(=O)C=C[C@]4(C)[C@@]3(F)[C@@H](O)C[C@]2(C)[C@@]1(O)C(=O)CO [dexamethasone], which “effect on toxicities associated with DTC 101” value (oral, 2 to 4 mg twice per day) is on record?
Its value is “major effect on blunting toxicities associated with DTC 101”.

And the “DTC 101 toxicity with concurrent oral dexamethasone” value (three patients, same dose of DTC 101 with and without dexamethasone)?
Its value is “almost completely suppressed”.
